According to US20150238487A1, “NOVEL ERGOLINE DERIVATIVES AND USES THEREOF” (MAP Pharmaceuticals, Inc., priority 2012, published 2015):
pEC50, pIC50: −log10 of the molar value.

Tests used:
Adenosine A2a = biological target: T1, Adenosine A2a (Homo sapiens, UniProt P29274); experiment: cAMP HTRF assay, Adenosine A2a; type: cell-based; conditions: agonism; HEK293, cAMP
T1 construct: expressed in transfected cells; host or cells: HEK293
Experimental: (§1) Receptor […] activity assays were performed using 8′OH-2-CF3-dihydroergotamine (8′OH-2-CF3-DHE). Table 1 summarizes the cell lines (CHO-K1/HEK293 transfected with relevant human receptor) and the assays performed to detect any agonist or antagonist activity.
cAMP HTRF (Gs) studies were conducted to monitor activity for 8′OH-2CF3-dihydroergotamine (8′OH-2CF3-DHE) against the receptors indicated in Table 1 above. Cells expressing the human recombinant receptor of interest were grown in media without antibiotic and detached by gentle flushing with PBS-EDTA (5 mM EDTA), recovered by centrifugation and resuspended in assay buffer (KRH: 5 mM KCl, 1.25 mM MgSO4, 124 mM NaCl, 25 mM HEPES, 13.3 mM glucose, 1.25 mM KH2PO4, 1.45 mM CaCl2, 0.5 g/L BSA). Dose response curves were performed in parallel with the reference compounds. For agonist tests (96-well plates), 12 μL of cells was mixed with 12 μL of the test compound at increasing concentrations and then incubated for 30 minutes at room temperature. Lysis buffer was added and after a 1 hour incubation, cAMP concentrations was determined according to the manufacturer specification with the HTRF kit. […] Lysis buffer was added and after a 1 hour incubation, cAMP concentrations were determined according to the manufacturer specification, with the HTRF kit.

NK1 = biological target: T2, NK1 (Homo sapiens, UniProt P25103); experiment: Aequorin assay, Neurokinin NK1; type: cell-based; conditions: antagonism, CHO-AEQ
T2 construct: expressed in transfected cells; host or cells: CHO-AEQ (CHO-K1 coexpressing mitochondrial apoaequorin)
Experimental: as §1
(§2) Aequorin assays were conducted to monitor activity for 8′OH-2CF3-dihydroergotamine (8′OH-2CF3-DHE) against the receptors indicated in Table 1 above (except for mGlu3 and mGlu5). CHO-K1 cells coexpressing mitochondrial apoaequorin and the recombinant human receptor of interest were grown to mid-log phase in culture media without antibiotics and then detached with PBS-EDTA, centrifuged and resuspended in assay buffer (DMEM/HAM's F12 with HEPES, without phenol red+0.1% BSA, protease free) at a concentration of 1×10^6 cell/mL. […]
(§3) 50 μL of the cell suspension was mixed with 50 μL of test or reference agonist in a 96-well plate. The resulting emission of light was recorded using Hamamatsu Functional Drug Screening System 6000 (FDSS 6000) luminometer. […]
(§4) To standardize the emission of recorded light (and determine of the “100% signal”) across plates and across different experiments, some wells contained 100 μM digitonin or a saturating concentration of ATP (20 μM).

Serotonin 5-HT1D = biological target: T3, Serotonin 5-HT1D (Homo sapiens, UniProt P28221); experiment: GTPγ[35S] assay, Serotonin 5-HT1D; type: biochemical; conditions: agonism, CHO-K1 membranes
T3 construct: expressed in transfected cells; host or cells: CHO-K1 (membrane extracts)
Experimental: as §1
(§5) GTPγS studies were conducted to monitor agonist activity for 8′OH-2CF3-dihydroergotamine (8′OH-2CF3-DHE) against the receptors indicated in Table 1 above. Reagents used were the following: Assay buffer (20 mM HEPES, pH 7.4; 100 mM NaCl; 10 μg/mL saponin; 30 mM MgCl2); Membranes (recombinant human receptor membrane extracts were thawed on ice and diluted in assay buffer to give 1000 μg/mL ([…]) and kept on ice); GDP (diluted in assay buffer to give 30 μM solution (3 μM final concentration); beads (PVT-WGA (Amersham, RPNQ001), diluted in assay buffer at 25 mg/mL (0.25 mg/10 μL)); GTPγ^35S (Perkin Elmer, NEG030X), diluted in assay buffer to give 0.1 nM (final concentration); and ligand (agonist/antagonist diluted in assay buffer).
(§6) Membranes were mixed with GDP (1:1) and incubated for at least 15 minutes on ice. In parallel GTPγ^35S was mixed with the beads (1:1) just before starting the reaction. […] The plates were then centrifuged for 10 minutes at 2000 rpm and incubated at room temperature for 1 hour and counted for 1 min/well with a Perkin Elmer TopCount reader.

Serotonin 5-HT3 = biological target: T4, Serotonin 5-HT3 (Homo sapiens, UniProt P46098); experiment: Aequorin assay, Serotonin 5-HT3; type: cell-based; conditions: antagonism, HEK-293 mAeq
T4 construct: expressed in transfected cells; host or cells: HEK-293 mAeq
Experimental: as §1, §2, §3, §4

Dopamine D4 = biological target: T5, Dopamine D4 (Homo sapiens, UniProt P21917); experiment: GTPγ[35S] assay, Dopamine D4; type: biochemical; conditions: antagonism, CHO-K1 membranes
T5 construct: expressed in transfected cells; host or cells: CHO-K1 (membrane extracts)
Experimental: as §1, §5, §6

CCK2 = biological target: T6, CCK2 (Homo sapiens, UniProt P32239); experiment: Aequorin assay, Cholecystokinin CCK2; type: cell-based; conditions: antagonism, CHO-AEQ
T6 construct: expressed in transfected cells; host or cells: CHO-AEQ
Experimental: as §1, §2, §3, §4

Serotonin 5-HT1A = biological target: T7, Serotonin 5-HT1A (Homo sapiens, UniProt P08908); experiment: GTPγ[35S] assay, Serotonin 5-HT1A; type: biochemical; conditions: agonism, CHO-K1 membranes
T7 construct: expressed in transfected cells; host or cells: CHO-K1 (membrane extracts)
Experimental: as §1, §5, §6

OX1 = biological target: T8, OX1 (Homo sapiens, UniProt O43613); experiment: Aequorin assay, Orexin OX1; type: cell-based; conditions: antagonism, CHO-AEQ
T8 construct: expressed in transfected cells; host or cells: CHO-AEQ (CHO-K1 coexpressing mitochondrial apoaequorin)
Experimental: as §1, §2, §3, §4

Adrenergic α1A = biological target: T9, Adrenergic α1A (Homo sapiens, UniProt P35348); experiment: Aequorin assay, Adrenergic α1A; type: cell-based; conditions: antagonism, CHO-K1 mAeq, read-out: Activity (Antagonism: IC50), Adrenergic a1A
T9 construct: expressed in transfected cells; host or cells: CHO-K1 mAeq
Experimental: as §1, §2, §3, §4

Adrenergic α1D = biological target: T10, Adrenergic α1D (Homo sapiens, UniProt P25100); experiment: Aequorin assay, Adrenergic α1D; type: cell-based; conditions: antagonism, CHO-K1 mAeq, read-out: Activity (Antagonism: IC50), Adrenergic a1D
T10 construct: expressed in transfected cells; host or cells: CHO-K1 mAeq
Experimental: as §1, §2, §3, §4

[1] = test system: Somatostatin (SST1 ~ SSTS); experiment: GTPγ[35S] assay, Somatostatin receptors; type: biochemical, human; conditions: CHO-K1 membranes
Experimental: as §1, §5, §6

T1 sequence (P29274 whole entry): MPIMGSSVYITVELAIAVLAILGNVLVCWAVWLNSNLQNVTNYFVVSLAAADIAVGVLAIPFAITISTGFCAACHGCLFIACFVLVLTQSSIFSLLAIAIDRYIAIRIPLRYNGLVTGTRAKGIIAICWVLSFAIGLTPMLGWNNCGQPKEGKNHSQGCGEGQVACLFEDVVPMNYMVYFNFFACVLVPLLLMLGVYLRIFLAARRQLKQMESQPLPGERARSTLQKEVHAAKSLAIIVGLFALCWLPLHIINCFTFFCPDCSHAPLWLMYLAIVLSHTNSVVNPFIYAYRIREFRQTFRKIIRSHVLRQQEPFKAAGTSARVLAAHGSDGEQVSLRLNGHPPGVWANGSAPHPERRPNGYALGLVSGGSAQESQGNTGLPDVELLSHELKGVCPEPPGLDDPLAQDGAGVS
T9 sequence (P35348 whole entry): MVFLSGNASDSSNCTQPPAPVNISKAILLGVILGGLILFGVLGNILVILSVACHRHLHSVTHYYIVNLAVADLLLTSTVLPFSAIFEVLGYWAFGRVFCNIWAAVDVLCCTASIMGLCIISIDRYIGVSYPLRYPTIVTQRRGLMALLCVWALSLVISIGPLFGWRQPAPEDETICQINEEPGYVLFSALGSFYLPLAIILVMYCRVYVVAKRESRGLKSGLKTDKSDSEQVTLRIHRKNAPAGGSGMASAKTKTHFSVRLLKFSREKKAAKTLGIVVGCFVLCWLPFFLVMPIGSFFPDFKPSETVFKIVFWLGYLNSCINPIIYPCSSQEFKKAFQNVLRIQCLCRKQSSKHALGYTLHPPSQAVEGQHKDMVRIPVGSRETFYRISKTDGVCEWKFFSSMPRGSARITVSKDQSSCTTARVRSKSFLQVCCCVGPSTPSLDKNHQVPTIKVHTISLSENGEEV
T3 sequence (P28221 whole entry): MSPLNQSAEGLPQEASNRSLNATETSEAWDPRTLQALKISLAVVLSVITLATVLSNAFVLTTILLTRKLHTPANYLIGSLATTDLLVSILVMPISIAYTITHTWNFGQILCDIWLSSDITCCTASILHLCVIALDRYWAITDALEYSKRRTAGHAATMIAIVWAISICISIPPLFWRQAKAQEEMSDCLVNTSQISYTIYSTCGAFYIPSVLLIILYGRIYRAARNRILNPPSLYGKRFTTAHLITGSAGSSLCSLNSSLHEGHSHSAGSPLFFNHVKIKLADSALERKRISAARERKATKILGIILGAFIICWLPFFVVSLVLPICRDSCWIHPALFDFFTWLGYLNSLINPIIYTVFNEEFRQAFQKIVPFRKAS
T6 sequence (P32239 whole entry): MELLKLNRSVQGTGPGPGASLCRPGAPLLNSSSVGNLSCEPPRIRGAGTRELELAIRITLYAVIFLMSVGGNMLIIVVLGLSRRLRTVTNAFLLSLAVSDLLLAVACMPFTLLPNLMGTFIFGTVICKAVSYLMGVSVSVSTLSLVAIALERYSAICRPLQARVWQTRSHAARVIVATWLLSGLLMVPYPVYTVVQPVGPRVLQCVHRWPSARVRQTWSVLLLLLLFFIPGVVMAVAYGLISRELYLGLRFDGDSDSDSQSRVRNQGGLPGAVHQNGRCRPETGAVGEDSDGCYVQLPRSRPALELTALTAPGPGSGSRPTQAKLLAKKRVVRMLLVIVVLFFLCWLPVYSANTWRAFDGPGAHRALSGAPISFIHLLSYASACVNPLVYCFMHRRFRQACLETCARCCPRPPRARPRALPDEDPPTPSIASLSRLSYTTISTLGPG
T2 sequence (P25103 whole entry): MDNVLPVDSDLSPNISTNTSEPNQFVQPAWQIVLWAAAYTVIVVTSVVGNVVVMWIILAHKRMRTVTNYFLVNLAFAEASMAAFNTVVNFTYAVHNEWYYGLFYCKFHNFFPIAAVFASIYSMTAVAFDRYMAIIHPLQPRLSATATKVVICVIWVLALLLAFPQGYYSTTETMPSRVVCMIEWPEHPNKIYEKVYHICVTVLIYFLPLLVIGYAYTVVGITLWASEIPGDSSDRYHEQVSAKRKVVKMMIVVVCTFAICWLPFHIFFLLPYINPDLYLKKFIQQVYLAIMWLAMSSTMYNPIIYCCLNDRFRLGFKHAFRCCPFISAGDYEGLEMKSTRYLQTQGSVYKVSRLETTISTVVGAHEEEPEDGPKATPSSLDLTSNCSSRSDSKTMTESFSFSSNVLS
T10 sequence (P25100 whole entry): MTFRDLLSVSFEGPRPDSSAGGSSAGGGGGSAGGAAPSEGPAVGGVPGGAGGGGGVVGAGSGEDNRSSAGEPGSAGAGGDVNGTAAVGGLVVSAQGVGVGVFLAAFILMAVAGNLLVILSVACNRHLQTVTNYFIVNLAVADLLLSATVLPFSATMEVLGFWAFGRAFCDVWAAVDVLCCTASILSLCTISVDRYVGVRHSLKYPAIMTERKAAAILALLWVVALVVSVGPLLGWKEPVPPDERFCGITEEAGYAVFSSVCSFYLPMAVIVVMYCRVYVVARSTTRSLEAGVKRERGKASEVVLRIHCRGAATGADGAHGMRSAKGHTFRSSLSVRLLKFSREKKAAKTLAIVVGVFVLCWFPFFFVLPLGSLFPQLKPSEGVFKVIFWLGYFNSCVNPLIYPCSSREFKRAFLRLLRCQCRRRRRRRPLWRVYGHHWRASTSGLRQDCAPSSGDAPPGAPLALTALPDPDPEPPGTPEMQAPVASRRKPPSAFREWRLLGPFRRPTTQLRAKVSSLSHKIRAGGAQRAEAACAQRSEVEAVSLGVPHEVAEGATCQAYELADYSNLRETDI
T5 sequence (P21917 whole entry): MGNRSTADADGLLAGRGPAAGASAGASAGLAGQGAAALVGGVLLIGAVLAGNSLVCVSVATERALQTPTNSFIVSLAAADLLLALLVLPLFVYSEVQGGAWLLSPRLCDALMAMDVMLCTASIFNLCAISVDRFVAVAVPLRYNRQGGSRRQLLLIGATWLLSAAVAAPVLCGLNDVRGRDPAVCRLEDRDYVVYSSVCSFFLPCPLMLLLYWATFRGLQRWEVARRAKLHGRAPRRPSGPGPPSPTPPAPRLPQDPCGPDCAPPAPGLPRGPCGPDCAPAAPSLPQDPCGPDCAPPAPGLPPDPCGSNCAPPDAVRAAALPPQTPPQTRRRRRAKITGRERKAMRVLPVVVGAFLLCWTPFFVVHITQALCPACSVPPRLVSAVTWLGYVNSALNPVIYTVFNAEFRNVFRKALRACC
T8 sequence (O43613 whole entry): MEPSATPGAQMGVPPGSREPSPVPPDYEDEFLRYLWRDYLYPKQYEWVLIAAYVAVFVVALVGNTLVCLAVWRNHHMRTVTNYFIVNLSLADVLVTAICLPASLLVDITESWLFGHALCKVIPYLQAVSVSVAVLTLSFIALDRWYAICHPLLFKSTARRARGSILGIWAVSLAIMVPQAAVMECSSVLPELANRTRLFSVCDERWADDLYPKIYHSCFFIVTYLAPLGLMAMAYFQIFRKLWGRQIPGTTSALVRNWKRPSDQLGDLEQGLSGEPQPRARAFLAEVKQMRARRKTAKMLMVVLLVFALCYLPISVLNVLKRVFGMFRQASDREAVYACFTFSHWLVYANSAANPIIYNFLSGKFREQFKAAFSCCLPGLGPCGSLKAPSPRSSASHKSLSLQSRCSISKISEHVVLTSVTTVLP
T4 sequence (P46098 24-478): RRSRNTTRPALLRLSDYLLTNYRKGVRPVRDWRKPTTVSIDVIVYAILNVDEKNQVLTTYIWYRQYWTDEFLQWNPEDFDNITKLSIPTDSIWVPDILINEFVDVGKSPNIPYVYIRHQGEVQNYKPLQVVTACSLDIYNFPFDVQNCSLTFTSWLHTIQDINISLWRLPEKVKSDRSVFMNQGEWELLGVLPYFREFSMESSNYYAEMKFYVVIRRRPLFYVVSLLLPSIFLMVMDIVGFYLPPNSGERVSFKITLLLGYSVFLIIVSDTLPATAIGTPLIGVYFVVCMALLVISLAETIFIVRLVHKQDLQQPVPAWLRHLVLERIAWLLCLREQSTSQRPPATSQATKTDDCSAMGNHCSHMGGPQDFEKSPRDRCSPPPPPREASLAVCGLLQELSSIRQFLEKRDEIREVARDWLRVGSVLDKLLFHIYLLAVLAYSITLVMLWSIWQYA
T7 sequence (P08908 whole entry): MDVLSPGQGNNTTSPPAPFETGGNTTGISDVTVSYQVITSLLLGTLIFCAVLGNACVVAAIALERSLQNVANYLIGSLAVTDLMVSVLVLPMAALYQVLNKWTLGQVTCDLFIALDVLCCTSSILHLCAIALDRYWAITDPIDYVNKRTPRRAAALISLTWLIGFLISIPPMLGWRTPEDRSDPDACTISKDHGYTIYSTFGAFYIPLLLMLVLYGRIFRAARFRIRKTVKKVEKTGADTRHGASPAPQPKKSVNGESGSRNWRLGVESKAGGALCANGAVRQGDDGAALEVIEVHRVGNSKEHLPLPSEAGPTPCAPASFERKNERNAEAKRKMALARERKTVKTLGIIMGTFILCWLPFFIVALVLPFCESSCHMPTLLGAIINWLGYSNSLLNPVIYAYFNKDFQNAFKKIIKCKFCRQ

CN1C[C@H](C(=O)N[C@]2(C)O[C@@]3(O)[C@@H]4CC[C@@H](O)N4C(=O)[C@H](Cc4ccccc4)N3C2=O)C[C@@H]2c3cccc4[nH]c(C(F)(F)F)c(c34)C[C@H]21 [8′OH-2-CF3-DHE, 8′-Hydroxy-2-CF3-dihydroergotamine]
pEC50 (Adenosine A2a): 8.28
Emax (Adenosine A2a): 25%
pIC50 (NK1): < 6.00
pEC50 (Serotonin 5-HT1D): 8.28
pIC50 (Serotonin 5-HT3): 5.56
pIC50 (Dopamine D4): < 5.00
pIC50 (CCK2): < 5.00
pEC50 (Serotonin 5-HT1A): 6.37
pIC50 (OX1): < 5.00
pIC50 (Adrenergic α1A): 7.40
pIC50 (Adrenergic α1D): 8.02
Activity (Agonism: EC50; Antagonism: IC50), Somatostatin (SST1 ~ SSTS) [1]: Inactive
